These results are taken from patent US8975406B2, “Compound useful for the treatment of degenerative and inflammatory diseases” (Galapagos N.V., priority 2011, dated 2015).

The subject of one test is rat CIA model. The test is described as follows: Rat collagen induced arthritis (CIA) model. The settings on record: dose of 0.1 mg/kg. Type of test: in vivo. The procedure: Completed Freund's adjuvant (CFA) and incomplete Freund's adjuvant (IFA) were purchased from Difco. Bovine collagen type II (CII), lipopolysaccharide (LPS), and Enbrel was obtained from Chondrex (Isle d'Abeau, France); Sigma (P4252, L′Isle d'Abeau, France), Whyett (25 mg injectable syringe, France) Acros Organics (Palo Alto, Calif.), respectively. All other reagents used were of reagent grade and all solvents were of analytical grade.
Dark Agouti rats (male, 7-8 weeks old) were obtained from Harlan Laboratories (Maison-Alfort, France). Rats were kept on a 12 hr light/dark cycle (0700-1900). Temperature was maintained at 22° C., and food and water were provided ad libitum.
One day before the experiment, CII solution (2 mg/mL) is prepared with 0.05 M acetic acid and stored at 4° C. Just before the immunization, equal volumes of adjuvant (IFA) and CII are mixed by a homogenizer in a pre-cooled glass bottle in an ice water bath. […]
Arthritis is scored according to the method of Khachigian 2006, Lin et al 2007 and Nishida et al. 2004). […]
The area under the curve (AUC) from day 1 to day 14 is calculated for each individual rat. The AUC of each animal is divided by the average AUC obtained for the vehicle in the study from which the data on that animal is obtained and multiplied by 100 (i.e. the AUC was expressed as a percentage of the average vehicle AUC per study). […]

In the next test the target is T1, TYK2 (Homo sapiens, UniProt P29597).
T1 construct: catalytic domain (amino acids 871-1187; catalog number 08-147); GST; purchased Carna Biosciences 08-147
T1 sequence (P29597 871-1187): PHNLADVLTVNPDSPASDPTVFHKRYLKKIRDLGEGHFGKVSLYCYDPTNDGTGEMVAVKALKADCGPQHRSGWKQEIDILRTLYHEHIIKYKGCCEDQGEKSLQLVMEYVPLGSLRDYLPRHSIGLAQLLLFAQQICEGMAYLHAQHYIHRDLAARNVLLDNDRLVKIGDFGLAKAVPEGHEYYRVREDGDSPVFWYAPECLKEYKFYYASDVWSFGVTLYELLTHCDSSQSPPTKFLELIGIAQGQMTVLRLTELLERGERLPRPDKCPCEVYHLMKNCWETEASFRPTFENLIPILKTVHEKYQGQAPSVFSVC
The test is described as follows: TYK2 Ki determination assay. Type of test: biochemical. The settings on record: Lineweaver-Burk plot, polyGT substrate, varying ATP. The procedure:
For the determination of Ki, different amounts of compound are mixed with the enzyme and the enzymatic reaction is followed as a function of ATP concentration. The Ki is determined by means of double reciprocal plotting of Km vs compound concentration (Lineweaver-Burk plot). TYK2 (Carna Biosciences, 08-147) was used at a final concentration of 160 ng/ml. The substrate was Poly(Glu,Tyr)sodium salt (4:1), MW 20 000-50 000 (Sigma, P0275) The reaction was performed in 25 mM Hepes pH 7.2, 50 mM NaCl, 0.5 mM EDTA, 1 mM DTT, 5 mM MnCl2, 10 mM MgCl2, 0.1% Brij-35 with varying concentrations of ATP and compound and stopped by addition of 150 mM phosphoric acid. Measurement of incorporated phosphate into the substrate polyGT was done by loading the samples on a filter plate (using a harvester, Perkin Elmer) and subsequent washing. Incorporated ^33P in polyGT is measured in a Topcount scintillation counter after addition of scintillation liquid to the filter plates (Perkin Elmer).

Consider `CC(=O)Nc1cc2c(-c3ccc(CN4CCN(S(C)(=O)=O)CC4)c(F)c3)cccn2n1` [Compound 21], for which, in the test on rat CIA model, the “normalized clinical score values (calculated as AUC or as the difference from day 1 to day 14)” value is given as “statistically significant improvements”. This compound also returned a Ki on TYK2 of 135 nM.

As a reminder, the Ki is the dissociation constant of the complex between target and ligand, obtained from inhibition or displacement. The low end stands for a stronger hold on the target, the high end for a looser hold on the target.
